From patent US7842856B2, “Herbicide resistance gene, compositions and methods” (The Board of Trustees of the University of Illinois, priority 2005, dated 2010)

Key:
[1] = test system: A. tuberculatus PPO2L with glycine at position 210 expressed in E. coli SASX38; type: cell-based; settings: LB with lactofen (100 nM, FIG. 6), 37° C., 14 hrs
[2] = test system: A. tuberculatus F1(R) hybrid (maternal parent R); assay: Herbicide dose-response on whole plants, F1(R) line; type: in vivo, Amaranthus tuberculatus (waterhemp); settings: for GR50 (growth reduction by 50%) F1(R): F1(R) line
[3] = test system: A. tuberculatus F1(S) hybrid (maternal parent S); assay: Herbicide dose-response on whole plants, F1(S) line; type: in vivo, Amaranthus tuberculatus (waterhemp)

SMILES	growth of E. coli on lactofen-supplemented medium [1]	GR50 (growth reduction by 50%) F1(R) ([2]; 10 DAT) [g ai ha^−1]	GR50 (growth reduction by 50%) F1(R) ([2]; 15 DAT) [g ai ha^−1]	fold higher doses survived compared with S plants ([2]; lines heterozygous for resistance vs S plants (FIG. 2; Table 2)) [fold]	GR50 (growth reduction by 50%) F1(S) ([3]; 10 DAT) [g ai ha^−1]	GR50 (growth reduction by 50%) F1(S) ([3]; 15 DAT) [g ai ha^−1]
CCOC(=O)C(C)OC(=O)c1cc(Oc2ccc(C(F)(F)F)cc2Cl)ccc1[N+](=O)[O-] (racemic) [Lactofen, (±)-2-ethoxy-1-methyl-2-oxoethyl 5-{2-chloro-4-(trifluoromethyl)phenoxy}-2-nitrobenzoate]	dramatically inhibited growth	0.7	12	31	1.6	13
O=C(O)c1cc(Oc2ccc(C(F)(F)F)cc2Cl)ccc1[N+](=O)[O-] [Acifluorfen, 5-{2-chloro-4-(trifluoromethyl)phenoxy}-2-nitrobezoic acid]		3.8			4.1	
